Source: article PMC3685705, “Antimicrobial and antiurease activities of newly synthesized morpholine derivatives containing an azole nucleus” (Medicinal Chemistry Research, 2012)
≈ marks a conversion by molar mass, not a printed value. Read-outs that look alike come from different tables or passages of the source.

Columns and labels:
S. cerevisiae RSKK 251 = assay: Antifungal activity, broth double microdilution MIC; format: cell-based; settings: Saccharomyces cerevisiae
[1] = test system: Candida albicans ATCC 60193; assay: as above; format: cell-based
[2] = test system: Mycobacterium smegmatis ATCC 607; assay: Antimicrobial activity, broth double microdilution MIC; format: cell-based; settings: Mycolicibacterium smegmatis
urease = urease (Canavalia ensiformis, UniProt P07374); assay: Urease inhibitory activity (Van Slyke and Archibald)
[3] = test system: Enterococcus faecalis ATCC 29212; assay: Antimicrobial activity, broth double microdilution MIC; format: cell-based; settings: ATCC29212, Mueller–Hinton broth pH 7.3, 18–24 h at 35 °C, – = no activity, read-out: minimal inhibition concentration, Ef
[4] = test system: Yersinia pseudotuberculosis ATCC 911; assay: microbe, parasite or virus in culture; format: cell-based; settings: ATCC911, pH 7.3, read-out: minimal inhibition concentration, Yp
all the microorganisms = assay: Antimicrobial activity in vitro, whole panel; format: cell-based; settings: result in words
[5] = test system: Pseudomonas aeruginosa ATCC 43288; assay: Antimicrobial activity, broth double microdilution MIC; format: cell-based; settings: ATCC43288, Mueller–Hinton broth pH 7.3, 18–24 h at 35 °C, – = no activity, read-out: minimal inhibition concentration, Pa
[6] = test system: Escherichia coli ATCC 25922; assay: as above; format: cell-based; settings: ATCC25922, pH 7.3, read-out: minimal inhibition concentration, Ec
Bacillus cereus 702 Roma = assay: as above; format: cell-based; settings: pH 7.3, read-out: minimal inhibition concentration, Bc
[7] = test system: Staphylococcus aureus ATCC 25923; assay: as above; format: cell-based; settings: ATCC25923, Mueller–Hinton broth pH 7.3, 18–24 h at 35 °C, – = no activity, read-out: minimal inhibition concentration, Sa
[8] = RSKK251, pH 7, read-out: minimal inhibition concentration, Sc
[9] = Candida albicans, ATCC60193, pH 7, read-out: minimal inhibition concentration, Ca
[10] = ATCC607, read-out: minimal inhibition concentration, Ms

Sequence of urease (P07374 whole entry, looked up): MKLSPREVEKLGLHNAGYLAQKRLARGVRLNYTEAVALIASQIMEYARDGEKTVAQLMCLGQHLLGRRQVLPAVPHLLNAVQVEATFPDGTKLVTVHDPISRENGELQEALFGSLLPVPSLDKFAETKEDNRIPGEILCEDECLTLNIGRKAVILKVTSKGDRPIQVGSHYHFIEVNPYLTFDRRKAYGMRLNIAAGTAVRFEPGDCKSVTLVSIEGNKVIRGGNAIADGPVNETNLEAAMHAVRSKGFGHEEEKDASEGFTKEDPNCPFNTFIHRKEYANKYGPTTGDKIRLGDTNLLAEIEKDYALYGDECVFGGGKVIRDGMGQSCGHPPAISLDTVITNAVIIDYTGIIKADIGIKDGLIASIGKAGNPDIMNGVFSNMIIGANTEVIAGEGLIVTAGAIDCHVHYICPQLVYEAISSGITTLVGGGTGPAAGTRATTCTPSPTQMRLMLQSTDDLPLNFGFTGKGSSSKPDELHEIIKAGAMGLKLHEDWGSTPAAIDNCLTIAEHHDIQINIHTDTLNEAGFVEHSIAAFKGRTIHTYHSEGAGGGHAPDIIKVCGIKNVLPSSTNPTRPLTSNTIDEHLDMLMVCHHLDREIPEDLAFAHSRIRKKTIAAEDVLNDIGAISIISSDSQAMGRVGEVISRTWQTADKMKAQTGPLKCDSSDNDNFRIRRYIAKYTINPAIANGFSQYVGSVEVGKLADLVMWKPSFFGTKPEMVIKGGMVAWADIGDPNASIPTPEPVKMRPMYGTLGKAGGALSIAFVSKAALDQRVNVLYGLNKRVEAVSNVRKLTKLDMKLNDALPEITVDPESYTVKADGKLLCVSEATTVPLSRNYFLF

SMILES	MIC (S. cerevisiae RSKK 251; [8])	MIC [1, 9]	MIC [2, 10]	IC50 (urease)	melting point	also measured
O=C(CNc1ccc(N2CCOCC2)nc1)NNC(=S)Nc1ccccc1 [Compound 9, 2-{[(6-Morpholin-4-ylpyridin-3-yl)amino]acetyl}-N-phenylhydrazinecarbothioamide]	1000 µg/mL (≈ 2590 µM)	1000 µg/mL (≈ 2590 µM)	125 µg/mL (≈ 323 µM)	8.07 ± 1.25 µM	171 to 172 °C	
OC(Cn1cncn1)(Cn1cncn1)c1ccc(F)cc1F [Flu., Fluconazole, reference compound]						MIC (S. cerevisiae RSKK 251; RSKK251, S. cerevisiae RSKK 251, buffered Yeast Nitrogen Base pH 7.0, 18–24 h at 35 °C, read-out: minimal inhibition concentration, Sc): < 8 µg/mL; MIC ([1]; ATCC60193, Candida albicans ATCC 60193, buffered Yeast Nitrogen Base pH 7.0, 18–24 h at 35 °C, read-out: minimal inhibition concentration, Ca): < 8 µg/mL
O=C(CNc1ccc(N2CCOCC2)nc1)N/N=c1\sc(-c2ccc(Cl)cc2)cn1-c1ccccc1 [Compound 10]	1000 µg/mL (≈ 1920 µM)	500 µg/mL (≈ 960 µM)		2.37 ± 0.19 µM	168 to 169 °C	
O=C(CNc1ccc(N2CCOCC2)nc1)N/N=C/c1ccc(Br)cc1 [Compound 5, N-(4-Bromobenzylidene)-2-[6-(morpholin-4-yl)pyridin-3-ylamino]acetohydrazide]	1000 µg/mL (≈ 2390 µM)	1000 µg/mL (≈ 2390 µM)	31.3 µg/mL (≈ 74.8 µM)	6.87 ± 0.06 µM	163 to 164 °C	
O=C(CNc1ccc(N2CCOCC2)nc1)N/N=C/C=C/c1ccccc1 [Compound 6, 2-{[6-(Morpholin-4-yl)pyridin-3-yl]amino}-N-(3-phenylallylidene)acetohydrazide]	1000 µg/mL (≈ 2740 µM)	500 µg/mL (≈ 1370 µM)		8.29 ± 2.3 µM	194 to 195 °C	
CCOC(=O)CNc1ccc(N2CCOCC2)nc1 [Compound 3, Ethyl N-(6-morpholin-4-ylpyridin-3-yl)glycinate]	1000 µg/mL (≈ 3770 µM)	1000 µg/mL (≈ 3770 µM)	125 µg/mL (≈ 471 µM)	13.2 ± 2.25 µM	83 to 84 °C	
O=C(CNc1ccc(N2CCOCC2)nc1)N/N=C1\SCC(=O)N1c1ccccc1 [Compound 13, 2-[(6-Morpholin-4-ylpyridin-3-yl)amino]-N’-(4-oxo-3-phenyl-1,3-thiazolidin-2-ylidene)acetohydrazide]	1000 µg/mL (≈ 2340 µM)	500 µg/mL (≈ 1170 µM)		4.46 ± 0.22 µM	201 to 202 °C	
Sc1nnc(CNc2ccc(N3CCOCC3)nc2)n1-c1ccccc1 [Compound 11]					165 to 166 °C	
CN[C@@H]1[C@H](O[C@H]2[C@H](O[C@H]3[C@H](O)[C@@H](O)[C@H](N=C(N)N)[C@@H](O)[C@@H]3N=C(N)N)O[C@@H](C)[C@]2(O)C=O)O[C@@H](CO)[C@H](O)[C@H]1O [Str., Streptomisin, reference compound]						MIC ([2]; ATCC607, Mycobacterium smegmatis ATCC 607, Brain Heart Infusion broth, 48–72 h at 35 °C, – = no activity, read-out: minimal inhibition concentration, Ms): 4 µg/mL (≈ 6.88 µM)
NNC(=O)CNc1ccc(N2CCOCC2)nc1 [Compound 4, 2-[6-(Morpholin-4-yl)pyridin-3-ylamino]acetohydrazide]	1000 µg/mL (≈ 3980 µM)	500 µg/mL (≈ 1990 µM)	125 µg/mL (≈ 497 µM)	7.92 ± 1.43 µM	175 to 177 °C	
Sc1nnc(CNc2ccc(N3CCOCC3)nc2)o1 [Compound 7, 5-{[(6-Morpholin-4-ylpyridin-3-yl)amino]methyl}-1,3,4-oxadiazole-2-thiol]	1000 µg/mL (≈ 3410 µM)	500 µg/mL (≈ 1700 µM)		7.01 ± 0.68 µM	221 to 222 °C	
S=c1oc(CNc2ccc(N3CCOCC3)nc2)nn1CN1CCN(c2ccccc2)CC1 [Compound 8, 5-{[(6-Morpholin-4-ylpyridin-3-yl)amino]methyl}-3-[(4-phenylpiperazin-1-yl)methyl]-1,3,4-oxadiazole-2(3H)-thione]	1000 µg/mL (≈ 2140 µM)	1000 µg/mL (≈ 2140 µM)	125 µg/mL (≈ 267 µM)	4.99 ± 0.59 µM	87 to 88 °C	MIC [3]: 31.3 µg/mL (≈ 66.9 µM); MIC [4]: 62.5 µg/mL (≈ 134 µM); antimicrobial activity against all the microorganisms (all the microorganisms): active against all the microorganisms; MIC [5]: 62.5 µg/mL (≈ 134 µM); MIC [6]: 62.5 µg/mL (≈ 134 µM); MIC (Bacillus cereus 702 Roma): 62.5 µg/mL (≈ 134 µM); MIC [7]: 31.3 µg/mL (≈ 66.9 µM)
c1ccc(Nc2nnc(CNc3ccc(N4CCOCC4)nc3)s2)cc1 [Compound 12]					172 to 173 °C	
CC1(C)S[C@@H]2[C@H](NC(=O)[C@H](N)c3ccccc3)C(=O)N2[C@H]1C(=O)O [Amp., Ampicillin, reference compound]						MIC [3]: 2 µg/mL (≈ 5.72 µM); MIC [4]: 32 µg/mL (≈ 91.6 µM); MIC [5]: > 128 µg/mL; MIC [6]: 8 µg/mL (≈ 22.9 µM); MIC (Bacillus cereus 702 Roma): < 1 µg/mL; MIC [7]: 2 µg/mL (≈ 5.72 µM)
